Measurements from ChEMBL document CHEMBL5465560, “Selectivity Literature for EUbOPEN Chemogenomic Library” (2024).
pIC50: −log10 of the molar value. Values belong to the molecule of their own block, whether it stands above or below them.

Columns and labels:
[1] = target: Protein kinase C beta type (Homo sapiens, UniProt P05771); experiment: Selectivity interaction (Millipore kinase profiler) EUB0000124b PRKCB; settings: at 10 µM
[2] = target: T1, Hormonally up-regulated neu tumor-associated kinase (Homo sapiens) (UniProt P57058); experiment: Selectivity interaction (Ambit KINOMEscan and KiNATiv profiling in Jurkat cells) EUB0000090b HUNK; format: cell-based; settings: at 1 µM
T1 sequence (whole entry): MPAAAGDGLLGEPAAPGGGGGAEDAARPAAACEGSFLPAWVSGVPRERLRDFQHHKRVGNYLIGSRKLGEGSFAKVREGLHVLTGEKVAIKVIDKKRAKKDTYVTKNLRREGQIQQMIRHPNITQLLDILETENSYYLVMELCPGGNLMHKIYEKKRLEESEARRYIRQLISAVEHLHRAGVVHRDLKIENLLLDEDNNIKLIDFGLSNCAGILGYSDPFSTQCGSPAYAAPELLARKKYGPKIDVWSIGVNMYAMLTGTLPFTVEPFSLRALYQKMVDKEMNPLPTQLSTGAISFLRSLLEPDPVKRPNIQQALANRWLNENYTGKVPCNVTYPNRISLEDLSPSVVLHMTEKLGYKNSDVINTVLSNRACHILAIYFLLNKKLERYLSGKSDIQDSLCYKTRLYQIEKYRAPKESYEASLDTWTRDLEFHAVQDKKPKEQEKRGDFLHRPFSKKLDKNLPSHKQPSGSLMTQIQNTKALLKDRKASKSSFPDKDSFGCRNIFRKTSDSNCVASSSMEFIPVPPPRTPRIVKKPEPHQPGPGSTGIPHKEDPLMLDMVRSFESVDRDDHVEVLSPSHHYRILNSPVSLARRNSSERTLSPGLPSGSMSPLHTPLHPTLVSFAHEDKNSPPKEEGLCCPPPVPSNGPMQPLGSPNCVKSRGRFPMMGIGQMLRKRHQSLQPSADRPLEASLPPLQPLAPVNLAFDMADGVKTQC

[3] = target: Activin receptor type-1-like (Homo sapiens) (UniProt P37023); experiment: Selectivity interaction (Ambit KINOMEscan and KiNATiv profiling in Jurkat cells) EUB0000090b ACVRL1; format: cell-based; settings: at 1 µM
[4] = target: T2, Serine/threonine-protein kinase tousled-like 1 (Homo sapiens) (UniProt Q9UKI8); experiment: Selectivity interaction (ActivX KiNativ screen (kinase selectivity in THP-1 cell lysates)) EUB0000639a TLK1; format: subcellular; settings: lysate
T2 sequence (whole entry): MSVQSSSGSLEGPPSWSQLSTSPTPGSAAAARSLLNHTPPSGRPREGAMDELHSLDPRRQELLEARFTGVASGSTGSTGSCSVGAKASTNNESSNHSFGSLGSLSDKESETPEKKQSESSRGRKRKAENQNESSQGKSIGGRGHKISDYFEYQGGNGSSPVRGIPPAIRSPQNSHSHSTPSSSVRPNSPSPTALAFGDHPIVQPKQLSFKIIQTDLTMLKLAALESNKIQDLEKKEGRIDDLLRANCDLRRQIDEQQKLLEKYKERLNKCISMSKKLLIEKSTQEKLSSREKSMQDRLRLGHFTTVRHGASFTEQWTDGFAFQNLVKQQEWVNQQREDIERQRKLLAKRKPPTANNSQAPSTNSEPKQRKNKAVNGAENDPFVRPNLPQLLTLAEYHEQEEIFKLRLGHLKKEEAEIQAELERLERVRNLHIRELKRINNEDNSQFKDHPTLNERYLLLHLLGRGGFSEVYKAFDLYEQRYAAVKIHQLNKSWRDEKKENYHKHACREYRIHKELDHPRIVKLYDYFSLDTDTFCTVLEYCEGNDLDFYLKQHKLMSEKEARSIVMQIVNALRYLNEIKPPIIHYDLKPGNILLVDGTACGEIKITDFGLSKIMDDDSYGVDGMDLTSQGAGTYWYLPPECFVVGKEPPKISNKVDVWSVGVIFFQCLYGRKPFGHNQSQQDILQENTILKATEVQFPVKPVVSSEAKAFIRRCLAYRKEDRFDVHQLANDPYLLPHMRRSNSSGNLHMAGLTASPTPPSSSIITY

[5] = target: Cyclin-dependent kinase 18 (Homo sapiens) (UniProt Q07002); experiment: Selectivity interaction (ActivX KiNativ screen (kinase selectivity in THP-1 cell lysates)) EUB0000639a CDK18; format: subcellular; settings: lysate, at 1 µM
[6] = target: Mitogen-activated protein kinase 14 (Homo sapiens, UniProt Q16539); experiment: Selectivity interaction (ActivX KiNativ screen (kinase selectivity in THP-1 cell lysates)) EUB0000639a MAPK14; format: subcellular; settings: lysate, at 0.01 µM
[7] = target: Ribosomal protein S6 kinase alpha-5 (Homo sapiens) (UniProt O75582); experiment: Selectivity interaction (Kinase panel (Invitrogen)) EUB0000639a RPS6KA5; settings: at 200 nM
[8] = target: Histone-lysine N-methyltransferase, H3 lysine-79 specific (Homo sapiens, UniProt Q8TEK3); experiment: Selectivity interaction (Methyltransferase screen (radiometric assays, panel of 8 PRMTs, 21 protein lysine methyltransferases, 3 DNA methyltransferases, and one RNA methyltransferase)) EUB0000271b DOT1L
[9] = target: Calcium/calmodulin-dependent protein kinase type II subunit alpha (Homo sapiens, UniProt Q9UQM7); experiment: Selectivity interaction (Upstate Kinase Profiler service (Millipore, enzymatic assay)) EUB0000056c CAMK2A
[10] = target: Serine/threonine-protein kinase MARK1 (Homo sapiens) (UniProt Q9P0L2); experiment: Selectivity interaction (Upstate Kinase Profiler service (Millipore)) EUB0000056c MARK1; settings: at 1 µM
[11] = target: Rho-associated protein kinase 1 (Homo sapiens) (UniProt Q13464); experiment: Selectivity interaction (KinomeScan (DiscoverX)) EUB0000655a ROCK1; settings: at 10 µM
[12] = target: Ephrin type-A receptor 5 (Homo sapiens) (UniProt P54756); experiment: Selectivity interaction (SelectScreen profiling (Invitrogen)) EUB0000607a EPHA5; settings: at 2 µM
[13] = target: Cyclin-dependent kinase 17 (Homo sapiens) (UniProt Q00537); experiment: Selectivity interaction (Kinase panel (KiNativ target engagement assay in Jurkat cells)) EUB0001635a CDK17; format: cell-based; settings: Selectivity number of off-targets 0.0, Selectivity number of targets 233.0, Source Knowledge https://www.sciencedirect.com/science/article/pii/S2451945619300674?via%3Dihub, at 1 µM
[14] = target: Dual specificity protein kinase CLK3 (Homo sapiens, UniProt P49761); experiment: Selectivity interaction (Kinase panel (KiNativ target engagement assay in Jurkat cells)) EUB0001635a CLK3; format: cell-based; settings: Selectivity number of off-targets 0.0, Selectivity number of targets 233.0, Source Knowledge https://www.sciencedirect.com/science/article/pii/S2451945619300674?via%3Dihub, at 1 µM
[15] = target: Serine/threonine-protein kinase PLK1 (Homo sapiens, UniProt P53350); experiment: Selectivity interaction (Kinase panel (KiNativ target engagement assay in Jurkat cells)) EUB0001635a PLK1; format: cell-based; settings: Selectivity number of off-targets 0.0, Selectivity number of targets 233.0, Source Knowledge https://www.sciencedirect.com/science/article/pii/S2451945619300674?via%3Dihub, at 1 µM
[16] = target: Calcium/calmodulin-dependent protein kinase type 1 (Homo sapiens) (UniProt Q14012); experiment: Selectivity interaction (KinomeScan (DiscoverX)) EUB0000666a CAMK1; settings: at 10 µM
Calcium/calmodulin-dependent protein kinase type 1 (Homo sapiens), sequence (Q14012 whole entry, looked up): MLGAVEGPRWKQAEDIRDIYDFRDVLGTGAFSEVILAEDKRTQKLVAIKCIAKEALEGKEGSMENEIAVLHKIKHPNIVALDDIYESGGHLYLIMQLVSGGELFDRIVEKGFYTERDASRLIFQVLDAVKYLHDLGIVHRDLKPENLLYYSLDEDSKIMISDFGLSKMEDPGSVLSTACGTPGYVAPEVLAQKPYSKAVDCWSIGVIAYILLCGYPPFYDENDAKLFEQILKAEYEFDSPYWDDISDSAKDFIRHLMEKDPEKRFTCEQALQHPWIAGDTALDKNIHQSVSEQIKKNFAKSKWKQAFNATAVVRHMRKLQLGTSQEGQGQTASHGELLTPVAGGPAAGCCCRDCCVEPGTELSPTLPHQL

Histone-lysine N-methyltransferase, H3 lysine-79 specific, sequence (Q8TEK3 whole entry, looked up): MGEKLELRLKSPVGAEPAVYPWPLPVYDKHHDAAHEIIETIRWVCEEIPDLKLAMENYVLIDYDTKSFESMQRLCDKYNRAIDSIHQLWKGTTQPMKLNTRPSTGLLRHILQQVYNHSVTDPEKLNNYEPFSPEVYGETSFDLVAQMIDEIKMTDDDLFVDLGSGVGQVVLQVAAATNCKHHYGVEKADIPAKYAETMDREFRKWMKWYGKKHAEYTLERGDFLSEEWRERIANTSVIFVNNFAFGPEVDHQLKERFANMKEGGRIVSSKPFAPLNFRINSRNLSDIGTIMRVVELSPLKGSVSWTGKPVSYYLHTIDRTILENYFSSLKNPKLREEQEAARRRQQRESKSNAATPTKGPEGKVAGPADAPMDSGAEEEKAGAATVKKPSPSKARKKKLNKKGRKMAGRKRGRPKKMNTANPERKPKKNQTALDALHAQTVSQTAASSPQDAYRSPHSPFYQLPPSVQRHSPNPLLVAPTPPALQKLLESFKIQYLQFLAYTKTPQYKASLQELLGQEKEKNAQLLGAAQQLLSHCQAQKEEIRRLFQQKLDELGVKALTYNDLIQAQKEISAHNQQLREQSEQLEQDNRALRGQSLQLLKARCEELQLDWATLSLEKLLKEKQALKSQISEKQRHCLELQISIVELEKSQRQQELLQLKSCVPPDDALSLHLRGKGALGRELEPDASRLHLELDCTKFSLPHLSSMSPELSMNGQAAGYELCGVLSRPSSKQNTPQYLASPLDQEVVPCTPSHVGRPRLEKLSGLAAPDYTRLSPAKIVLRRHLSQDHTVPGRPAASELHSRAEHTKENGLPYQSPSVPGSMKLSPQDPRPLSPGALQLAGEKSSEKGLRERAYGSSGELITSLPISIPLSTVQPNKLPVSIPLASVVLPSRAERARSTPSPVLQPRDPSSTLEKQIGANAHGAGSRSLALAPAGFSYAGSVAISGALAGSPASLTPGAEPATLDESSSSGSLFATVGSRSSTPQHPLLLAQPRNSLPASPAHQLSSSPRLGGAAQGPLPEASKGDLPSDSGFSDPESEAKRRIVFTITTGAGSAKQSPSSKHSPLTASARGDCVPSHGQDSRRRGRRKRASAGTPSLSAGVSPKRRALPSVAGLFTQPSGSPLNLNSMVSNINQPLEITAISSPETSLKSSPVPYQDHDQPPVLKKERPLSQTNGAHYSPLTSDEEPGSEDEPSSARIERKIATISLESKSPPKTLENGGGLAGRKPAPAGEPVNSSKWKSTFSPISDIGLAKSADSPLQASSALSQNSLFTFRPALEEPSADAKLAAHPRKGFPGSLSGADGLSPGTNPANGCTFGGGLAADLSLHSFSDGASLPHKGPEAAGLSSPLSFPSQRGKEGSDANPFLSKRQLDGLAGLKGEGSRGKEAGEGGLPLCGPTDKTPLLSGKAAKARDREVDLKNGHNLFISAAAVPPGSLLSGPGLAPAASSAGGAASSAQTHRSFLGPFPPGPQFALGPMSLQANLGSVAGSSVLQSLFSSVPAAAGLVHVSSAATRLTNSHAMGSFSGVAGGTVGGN
Ephrin type-A receptor 5 (Homo sapiens), sequence (P54756 whole entry): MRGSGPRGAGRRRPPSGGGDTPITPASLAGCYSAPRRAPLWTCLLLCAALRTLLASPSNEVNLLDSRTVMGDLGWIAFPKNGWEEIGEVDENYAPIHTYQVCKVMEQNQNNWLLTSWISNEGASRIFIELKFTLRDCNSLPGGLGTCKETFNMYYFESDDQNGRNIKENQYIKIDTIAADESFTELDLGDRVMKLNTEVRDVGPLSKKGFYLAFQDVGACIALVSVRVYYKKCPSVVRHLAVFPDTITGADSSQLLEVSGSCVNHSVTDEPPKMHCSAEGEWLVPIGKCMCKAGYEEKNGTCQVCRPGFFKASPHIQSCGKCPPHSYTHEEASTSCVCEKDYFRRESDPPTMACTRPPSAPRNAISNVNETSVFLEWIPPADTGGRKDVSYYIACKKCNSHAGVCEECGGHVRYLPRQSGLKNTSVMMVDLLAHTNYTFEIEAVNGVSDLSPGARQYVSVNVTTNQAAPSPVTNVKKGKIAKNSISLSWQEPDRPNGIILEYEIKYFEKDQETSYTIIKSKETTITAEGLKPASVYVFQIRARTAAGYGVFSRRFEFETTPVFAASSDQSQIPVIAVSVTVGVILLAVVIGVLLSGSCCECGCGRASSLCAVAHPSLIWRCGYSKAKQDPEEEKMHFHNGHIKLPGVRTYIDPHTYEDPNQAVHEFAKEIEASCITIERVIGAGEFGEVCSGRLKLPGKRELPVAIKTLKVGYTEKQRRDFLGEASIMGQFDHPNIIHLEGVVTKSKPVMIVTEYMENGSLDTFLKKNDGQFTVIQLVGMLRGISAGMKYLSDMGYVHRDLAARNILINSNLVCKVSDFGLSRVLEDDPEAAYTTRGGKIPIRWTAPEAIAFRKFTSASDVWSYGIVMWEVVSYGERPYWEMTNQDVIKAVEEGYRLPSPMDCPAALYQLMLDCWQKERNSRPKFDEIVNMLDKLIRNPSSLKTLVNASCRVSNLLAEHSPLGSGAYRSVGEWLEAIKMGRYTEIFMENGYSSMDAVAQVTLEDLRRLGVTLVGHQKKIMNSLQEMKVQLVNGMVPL
Cyclin-dependent kinase 17 (Homo sapiens), sequence (Q00537 whole entry, looked up): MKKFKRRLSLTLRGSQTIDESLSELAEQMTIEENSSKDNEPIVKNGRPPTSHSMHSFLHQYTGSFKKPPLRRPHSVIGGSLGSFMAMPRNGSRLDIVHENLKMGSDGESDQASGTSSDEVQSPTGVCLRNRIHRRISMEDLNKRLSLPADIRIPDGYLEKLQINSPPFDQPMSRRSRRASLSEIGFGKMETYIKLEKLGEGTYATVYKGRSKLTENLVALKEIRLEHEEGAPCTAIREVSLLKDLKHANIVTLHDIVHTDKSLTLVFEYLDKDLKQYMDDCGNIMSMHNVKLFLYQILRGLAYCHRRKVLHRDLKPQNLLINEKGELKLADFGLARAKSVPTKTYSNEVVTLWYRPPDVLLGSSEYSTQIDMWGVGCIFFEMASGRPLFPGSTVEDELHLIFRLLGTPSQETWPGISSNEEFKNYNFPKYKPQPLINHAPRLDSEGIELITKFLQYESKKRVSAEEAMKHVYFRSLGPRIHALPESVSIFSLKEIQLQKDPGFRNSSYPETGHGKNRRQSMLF
Dual specificity protein kinase CLK3, sequence (P49761 whole entry, looked up): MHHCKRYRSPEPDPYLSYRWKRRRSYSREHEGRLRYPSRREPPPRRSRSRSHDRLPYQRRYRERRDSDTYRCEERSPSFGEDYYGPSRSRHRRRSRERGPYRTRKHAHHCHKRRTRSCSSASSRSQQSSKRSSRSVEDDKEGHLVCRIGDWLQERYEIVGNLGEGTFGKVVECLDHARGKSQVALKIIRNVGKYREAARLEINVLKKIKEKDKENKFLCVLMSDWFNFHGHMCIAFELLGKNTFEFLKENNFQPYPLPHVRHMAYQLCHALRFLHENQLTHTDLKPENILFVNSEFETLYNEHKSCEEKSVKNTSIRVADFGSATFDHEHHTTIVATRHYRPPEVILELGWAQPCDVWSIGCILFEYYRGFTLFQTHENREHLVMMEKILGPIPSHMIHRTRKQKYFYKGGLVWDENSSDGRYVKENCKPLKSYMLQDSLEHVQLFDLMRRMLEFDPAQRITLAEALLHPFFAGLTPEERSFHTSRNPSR
Activin receptor type-1-like (Homo sapiens), sequence (P37023 whole entry): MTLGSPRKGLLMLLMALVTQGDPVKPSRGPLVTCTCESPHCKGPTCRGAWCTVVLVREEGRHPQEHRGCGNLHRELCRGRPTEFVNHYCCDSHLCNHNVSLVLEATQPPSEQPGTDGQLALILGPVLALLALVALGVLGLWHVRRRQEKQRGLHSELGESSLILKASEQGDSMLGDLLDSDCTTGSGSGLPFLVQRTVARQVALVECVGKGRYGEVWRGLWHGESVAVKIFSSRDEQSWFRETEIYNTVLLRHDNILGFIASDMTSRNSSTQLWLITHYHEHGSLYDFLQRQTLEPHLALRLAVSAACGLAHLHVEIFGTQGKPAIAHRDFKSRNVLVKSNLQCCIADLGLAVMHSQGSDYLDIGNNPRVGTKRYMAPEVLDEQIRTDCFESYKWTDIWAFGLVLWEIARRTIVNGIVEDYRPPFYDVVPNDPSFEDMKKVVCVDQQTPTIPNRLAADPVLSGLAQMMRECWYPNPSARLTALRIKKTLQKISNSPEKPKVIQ
Serine/threonine-protein kinase PLK1, sequence (P53350 whole entry): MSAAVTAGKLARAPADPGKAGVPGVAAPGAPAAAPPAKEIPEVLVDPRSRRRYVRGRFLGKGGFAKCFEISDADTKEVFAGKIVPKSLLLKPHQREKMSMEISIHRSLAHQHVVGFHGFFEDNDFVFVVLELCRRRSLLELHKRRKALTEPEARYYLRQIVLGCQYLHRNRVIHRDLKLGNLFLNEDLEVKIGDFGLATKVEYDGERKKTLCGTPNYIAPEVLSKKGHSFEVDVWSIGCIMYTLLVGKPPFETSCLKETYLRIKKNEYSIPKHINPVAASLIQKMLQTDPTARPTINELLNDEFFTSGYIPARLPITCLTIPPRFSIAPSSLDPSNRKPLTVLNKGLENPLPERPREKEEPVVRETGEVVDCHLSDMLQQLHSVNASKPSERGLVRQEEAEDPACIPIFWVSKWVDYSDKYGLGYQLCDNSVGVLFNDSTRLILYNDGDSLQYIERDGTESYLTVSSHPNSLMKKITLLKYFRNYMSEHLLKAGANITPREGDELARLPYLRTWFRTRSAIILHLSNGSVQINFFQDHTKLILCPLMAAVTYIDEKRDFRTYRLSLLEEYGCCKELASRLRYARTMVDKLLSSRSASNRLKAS

- % of control [1]: 108%
Structure (SMILES): CC(=O)Nc1cccc(-n2c(=O)n(C3CC3)c(=O)c3c(Nc4ccc(I)cc4F)n(C)c(=O)c(C)c32)c1

Structure (SMILES): CN(C)C/C=C/C(=O)Nc1ccc(C(=O)N2CCCC(Nc3ncc(Cl)c(-c4c[nH]c5ccccc45)n3)C2)cc1 (stereo unspecified)
- % of control [2]: 80%
- % of control [3]: 79%

- % of inhibition ([4]; at 0.01 µM): 10.2%
- % of inhibition ([4]; at 0.04 µM): 21.8%
- % of inhibition ([4]; at 0.2 µM): 4.8%
- % of inhibition ([4]; at 1 µM): 54%
- % of inhibition ([4]; at 5 µM): 62.2%
- % of inhibition [5]: 3.9%
- % of inhibition [6]: -4.1%
- % of inhibition [7]: 0.449%
Structure (SMILES): CC[C@@H]1[C@H](F)C(=O)N[C@@H]1COc1nccc2cc(C(N)=O)c(OC)cc12 [ZIMLOVISERTIB]

Structure (SMILES): Cc1cc(C)cc([C@@H]2c3cc(C)ccc3NC(=O)CN2C(=O)c2ccc(Br)s2)c1
- % of activity ([8]; at 1 µM): 102%
- % of activity ([8]; at 10 µM): 92.7%

- pIC50 [9]: 7.15
- % of inhibition [10]: 5%
Structure (SMILES): Cc1ccc(-c2ccc3c(ccc4sc5c(c43)NC[C@@H](C)NC5=O)n2)cn1

Structure (SMILES): CN(C)CCOc1ccc(-c2nc(-c3ccncc3)c(-c3ccc4c(c3)CC/C4=N\O)[nH]2)cc1
- % of control [11]: 77%

Structure (SMILES): CNC(=O)Nc1ccc(-c2nc(N3CC4CCC(C3)O4)c3cnn(C4CCC5(CC4)OCCO5)c3n2)cc1
- % of inhibition [12]: 2%

Structure (SMILES): C=CC(=O)Nc1ccc(C(=O)Nc2[nH]nc3c2CN(C(=O)N[C@H](CN(C)C)c2ccccc2)C3(C)C)cc1
- % of engagement [13]: 9.3%
- % of engagement [14]: 4.3%
- % of engagement [15]: 5%

Structure (SMILES): O=C(NOC[C@H](O)CO)c1ccc(F)c(F)c1Nc1ccc(I)cc1F
- % of control [16]: 98%
